Measured values taken from PubChem BioAssay (NCI).
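Dose response: 5 concentrations. Exposure: 48 h. Format: 96-well plates. Endpoint: linear interpolation; highest concentration if not reached. TGI: concentration producing complete growth inhibition.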

Legend:
Assay in all cases: growth of human tumour cells (NCI), 48 h
NCI-H522 lung = tested on: NCI-H522 lung
OVCAR-5 ovarian = tested on: OVCAR-5 ovarian
HOP-92 NSCLC = tested on: HOP-92 NSCLC
NCI/ADR-RES ovarian = tested on: NCI/ADR-RES ovarian
UO-31 renal = tested on: UO-31 renal
OVCAR-8 ovarian = tested on: OVCAR-8 ovarian
OVCAR-3 ovarian = tested on: OVCAR-3 ovarian
NCI-H460 lung = tested on: NCI-H460 lung
BT-549 breast = tested on: BT-549 breast
SK-MEL-28 melanoma = tested on: SK-MEL-28 melanoma
HOP-62 NSCLC = tested on: HOP-62 NSCLC
CAKI-1 renal = tested on: CAKI-1 renal
RXF 393 renal = tested on: RXF 393 renal
DU-145 prostate = tested on: DU-145 prostate
HS 578T breast = tested on: HS 578T breast
MDA-N = tested on: MDA-N
RPMI-8226 leukemia = tested on: RPMI-8226 leukemia
LOX IMVI melanoma = tested on: LOX IMVI melanoma
HCT-15 colon = tested on: HCT-15 colon
UACC-257 melanoma = tested on: UACC-257 melanoma
SN12C renal = tested on: SN12C renal
TK-10 renal = tested on: TK-10 renal
SR leukemia = tested on: SR leukemia
UACC-62 melanoma = tested on: UACC-62 melanoma
MOLT-4 leukemia = tested on: MOLT-4 leukemia
MALME-3M melanoma = tested on: MALME-3M melanoma
EKVX NSCLC = tested on: EKVX NSCLC
ACHN renal = tested on: ACHN renal
MCF7 breast = tested on: MCF7 breast
SW-620 colon = tested on: SW-620 colon
SK-MEL-5 melanoma = tested on: SK-MEL-5 melanoma
HCC-2998 colon = tested on: HCC-2998 colon
OVCAR-4 ovarian = tested on: OVCAR-4 ovarian
SF-295 CNS = tested on: SF-295 CNS
CCRF-CEM leukemia = tested on: CCRF-CEM leukemia
HCT-116 colon = tested on: HCT-116 colon
SF-539 CNS = tested on: SF-539 CNS
SK-MEL-2 melanoma = tested on: SK-MEL-2 melanoma
MDA-MB-231 breast = tested on: MDA-MB-231 breast
NCI-H23 lung = tested on: NCI-H23 lung
A498 renal = tested on: A498 renal
SF-268 CNS = tested on: SF-268 CNS
PC-3 prostate = tested on: PC-3 prostate
MDA-MB-435 = tested on: MDA-MB-435
SNB-75 CNS = tested on: SNB-75 CNS
T-47D breast = tested on: T-47D breast
NCI-H226 lung = tested on: NCI-H226 lung
M14 melanoma = tested on: M14 melanoma
A549 NSCLC = tested on: A549 NSCLC
K-562 leukemia = tested on: K-562 leukemia
U251 CNS = tested on: U251 CNS
SNB-19 CNS = tested on: SNB-19 CNS
HT29 colon = tested on: HT29 colon
COLO 205 colon = tested on: COLO 205 colon
IGROV1 ovarian = tested on: IGROV1 ovarian
HL-60(TB) leukemia = tested on: HL-60(TB) leukemia
SK-OV-3 ovarian = tested on: SK-OV-3 ovarian
786-0 renal = tested on: 786-0 renal
KM12 colon = tested on: KM12 colon
LXFL 529 NSCLC = tested on: LXFL 529 NSCLC
DLD-1 colon = tested on: DLD-1 colon
XF 498 CNS = tested on: XF 498 CNS
DMS 273 small cell lung = tested on: DMS 273 small cell lung
M19-MEL melanoma = tested on: M19-MEL melanoma
DMS 114 small cell lung = tested on: DMS 114 small cell lung
KM20L2 colon = tested on: KM20L2 colon

## O=C(CN1CCN(C(=O)OCc2ccccc2)CCN(CC(=O)N2CCCCC2)CCN(C(=O)OCc2ccccc2)CC1)N1CCCCC1
NCI-H522 lung
  TGI: 19 µM
OVCAR-5 ovarian
  TGI: 48.8 µM
HOP-92 NSCLC
  TGI: 27.2 µM
NCI/ADR-RES ovarian
  TGI: 32.5 µM
UO-31 renal
  TGI: 30.6 µM
OVCAR-8 ovarian
  TGI: 33.8 µM
OVCAR-3 ovarian
  TGI: 22.8 µM
NCI-H460 lung
  TGI: 26.7 µM
BT-549 breast
  TGI: > 50.5 µM
SK-MEL-28 melanoma
  TGI: 27.9 µM
HOP-62 NSCLC
  TGI: 42.2 µM
CAKI-1 renal
  TGI: 28.9 µM
RXF 393 renal
  TGI: 39.1 µM
DU-145 prostate
  TGI: > 54.8 µM
HS 578T breast
  TGI: 35.2 µM
MDA-N
  TGI: 29.7 µM
RPMI-8226 leukemia
  TGI: 37.3 µM
LOX IMVI melanoma
  TGI: 28.1 µM
HCT-15 colon
  TGI: > 50.6 µM
UACC-257 melanoma
  TGI: 9.75 µM
SN12C renal
  TGI: 26.8 µM
TK-10 renal
  TGI: 26.5 µM
SR leukemia
  TGI: 11.8 µM
UACC-62 melanoma
  TGI: 38.8 µM
MOLT-4 leukemia
  TGI: > 46 µM
MALME-3M melanoma
  TGI: 23.5 µM
EKVX NSCLC
  TGI: > 56.7 µM
ACHN renal
  TGI: > 54 µM
MCF7 breast
  TGI: 44.6 µM
SW-620 colon
  TGI: > 53.5 µM
SK-MEL-5 melanoma
  TGI: 19.2 µM
HCC-2998 colon
  TGI: 25.2 µM
OVCAR-4 ovarian
  TGI: 25.4 µM
SF-295 CNS
  TGI: 41.1 µM
CCRF-CEM leukemia
  TGI: > 49.8 µM
HCT-116 colon
  TGI: 18.5 µM
SF-539 CNS
  TGI: 27.8 µM
SK-MEL-2 melanoma
  TGI: 40.2 µM
MDA-MB-231 breast
  TGI: 33.7 µM
NCI-H23 lung
  TGI: > 100 µM
A498 renal
  TGI: 47.1 µM
SF-268 CNS
  TGI: 31.8 µM
PC-3 prostate
  TGI: 37.3 µM
MDA-MB-435
  TGI: 31.2 µM
SNB-75 CNS
  TGI: 16.5 µM
T-47D breast
  TGI: 38.8 µM
NCI-H226 lung
  TGI: 36.6 µM
M14 melanoma
  TGI: 25 µM
A549 NSCLC
  TGI: > 53.5 µM
K-562 leukemia
  TGI: 32.7 µM
U251 CNS
  TGI: 34.4 µM
SNB-19 CNS
  TGI: > 52.5 µM
HT29 colon
  TGI: 28.6 µM
COLO 205 colon
  TGI: 27.2 µM
IGROV1 ovarian
  TGI: 28.9 µM
HL-60(TB) leukemia
  TGI: > 35.4 µM
SK-OV-3 ovarian
  TGI: > 52.7 µM
786-0 renal
  TGI: > 45.9 µM
KM12 colon
  TGI: 46.3 µM

## CN(C)CCn1c2ccccc2c2nc3cc4ccccc4cc3nc21
NCI-H522 lung
  TGI: 21.7 µM
UO-31 renal
  TGI: 18.1 µM
LXFL 529 NSCLC
  TGI: 17.9 µM
OVCAR-8 ovarian
  TGI: 23 µM
OVCAR-3 ovarian
  TGI: 28.2 µM
NCI-H460 lung
  TGI: 2.48 µM
SK-MEL-28 melanoma
  TGI: 21.9 µM
HOP-62 NSCLC
  TGI: 20.1 µM
CAKI-1 renal
  TGI: 20 µM
RXF 393 renal
  TGI: 24.4 µM
DLD-1 colon
  TGI: 16.5 µM
XF 498 CNS
  TGI: 21.4 µM
DMS 273 small cell lung
  TGI: 14.6 µM
RPMI-8226 leukemia
  TGI: 13.2 µM
LOX IMVI melanoma
  TGI: 15.6 µM
HCT-15 colon
  TGI: 18.7 µM
SN12C renal
  TGI: 17.8 µM
TK-10 renal
  TGI: 26.4 µM
UACC-62 melanoma
  TGI: 21.1 µM
MOLT-4 leukemia
  TGI: 4.1 µM
MALME-3M melanoma
  TGI: 25.2 µM
EKVX NSCLC
  TGI: 31.8 µM
ACHN renal
  TGI: 11.1 µM
SW-620 colon
  TGI: 17.4 µM
SK-MEL-5 melanoma
  TGI: 26.5 µM
HCC-2998 colon
  TGI: 17.7 µM
M19-MEL melanoma
  TGI: 21 µM
OVCAR-4 ovarian
  TGI: 23.7 µM
SF-295 CNS
  TGI: 17 µM
CCRF-CEM leukemia
  TGI: 14.7 µM
HCT-116 colon
  TGI: 16.9 µM
SK-MEL-2 melanoma
  TGI: 24.8 µM
NCI-H23 lung
  TGI: 24 µM
A498 renal
  TGI: 8.11 µM
SF-268 CNS
  TGI: 6.26 µM
NCI-H226 lung
  TGI: 34.6 µM
DMS 114 small cell lung
  TGI: 20.7 µM
M14 melanoma
  TGI: 16.4 µM
A549 NSCLC
  TGI: 16.9 µM
KM20L2 colon
  TGI: 15.6 µM
K-562 leukemia
  TGI: 10.9 µM
U251 CNS
  TGI: 19.5 µM
SNB-19 CNS
  TGI: 27.7 µM
HT29 colon
  TGI: 15 µM
COLO 205 colon
  TGI: 12.3 µM
IGROV1 ovarian
  TGI: 10.7 µM
HL-60(TB) leukemia
  TGI: 11.1 µM
SK-OV-3 ovarian
  TGI: 23.4 µM
786-0 renal
  TGI: 16 µM
KM12 colon
  TGI: 16.8 µM

## O=C(CSc1nc(=O)[nH]c2nc[nH]c12)Nc1ccccc1
NCI-H522 lung
  TGI: > 100 µM
OVCAR-5 ovarian
  TGI: > 100 µM
HOP-92 NSCLC
  TGI: > 100 µM
NCI/ADR-RES ovarian
  TGI: > 100 µM
UO-31 renal
  TGI: > 100 µM
OVCAR-8 ovarian
  TGI: > 100 µM
OVCAR-3 ovarian
  TGI: > 100 µM
NCI-H460 lung
  TGI: > 100 µM
BT-549 breast
  TGI: > 100 µM
SK-MEL-28 melanoma
  TGI: > 100 µM
HOP-62 NSCLC
  TGI: > 100 µM
CAKI-1 renal
  TGI: > 100 µM
RXF 393 renal
  TGI: > 100 µM
DU-145 prostate
  TGI: > 100 µM
HS 578T breast
  TGI: > 100 µM
MDA-N
  TGI: > 100 µM
RPMI-8226 leukemia
  TGI: > 100 µM
LOX IMVI melanoma
  TGI: > 100 µM
HCT-15 colon
  TGI: > 100 µM
UACC-257 melanoma
  TGI: > 100 µM
SN12C renal
  TGI: > 100 µM
TK-10 renal
  TGI: > 100 µM
SR leukemia
  TGI: > 100 µM
UACC-62 melanoma
  TGI: > 100 µM
MOLT-4 leukemia
  TGI: > 100 µM
MALME-3M melanoma
  TGI: > 100 µM
EKVX NSCLC
  TGI: > 100 µM
ACHN renal
  TGI: > 100 µM
MCF7 breast
  TGI: > 100 µM
SW-620 colon
  TGI: > 100 µM
SK-MEL-5 melanoma
  TGI: > 100 µM
HCC-2998 colon
  TGI: > 100 µM
OVCAR-4 ovarian
  TGI: > 100 µM
SF-295 CNS
  TGI: > 100 µM
CCRF-CEM leukemia
  TGI: > 100 µM
HCT-116 colon
  TGI: > 100 µM
SF-539 CNS
  TGI: 88.1 µM
SK-MEL-2 melanoma
  TGI: > 100 µM
MDA-MB-231 breast
  TGI: > 100 µM
NCI-H23 lung
  TGI: > 100 µM
A498 renal
  TGI: > 100 µM
SF-268 CNS
  TGI: > 100 µM
PC-3 prostate
  TGI: > 100 µM
MDA-MB-435
  TGI: > 100 µM
SNB-75 CNS
  TGI: > 100 µM
T-47D breast
  TGI: > 100 µM
NCI-H226 lung
  TGI: > 100 µM
M14 melanoma
  TGI: > 100 µM
A549 NSCLC
  TGI: > 100 µM
K-562 leukemia
  TGI: > 100 µM
U251 CNS
  TGI: > 100 µM
SNB-19 CNS
  TGI: > 100 µM
HT29 colon
  TGI: > 100 µM
COLO 205 colon
  TGI: > 100 µM
IGROV1 ovarian
  TGI: > 100 µM
HL-60(TB) leukemia
  TGI: > 100 µM
SK-OV-3 ovarian
  TGI: > 100 µM
786-0 renal
  TGI: > 100 µM
KM12 colon
  TGI: > 100 µM
